Reference: patent publication US20200031811A1, “SUBSTITUTED MONO- AND POLYAZANAPHTHALENE DERIVATIVES AND THEIR USE” (Basilea Pharmaceutica International AG, priority 2015, published 2020)
pIC50: −log10 of the molar value.

How the values were obtained:
[1] = system: human pancreatic cancer cell line MiaPaCa2 (ATCC CRL-1420); experiment: Cell growth assay (CellTiterGlo, 72 hours); assay type: cell-based; settings: for pIC50: MIA PaCa-2, MiaPaCa2 cells, 72 hours, read-out: IC50 MiaPaCa; for inhibition at 100 µM: MIA PaCa-2, at 100 μM, read-out: Inhibition of MiaPaCa growth at indicated concentration
How it was run: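 MiaPaCa2 cells (10^3/well) seeded in supplemented DMEM overnight, then exposed in quadruplicate to compound at 100 down to 0.1 μM for 72 h at 37° C. Growth read by CellTiterGlo luminescence, medium-only background subtracted, normalised to untreated cells; IC50 = concentration reducing growth to 50%.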

MNK1 = target: T1, MNK1 (Homo sapiens, UniProt Q9BUB5); experiment: MNK inhibition assay (Z-Lyte kinase assay, Ser/Thr 7 peptide); assay type: biochemical; settings: for pIC50: recombinant GST-MNK1, 3 hours at 31° C.
T1 construct: purchased Life Technologies or Carna Biosciences PV6023 or 02-145; host or cells: baculovirus infected insect cells
T1 sequence (Q9BUB5 whole entry): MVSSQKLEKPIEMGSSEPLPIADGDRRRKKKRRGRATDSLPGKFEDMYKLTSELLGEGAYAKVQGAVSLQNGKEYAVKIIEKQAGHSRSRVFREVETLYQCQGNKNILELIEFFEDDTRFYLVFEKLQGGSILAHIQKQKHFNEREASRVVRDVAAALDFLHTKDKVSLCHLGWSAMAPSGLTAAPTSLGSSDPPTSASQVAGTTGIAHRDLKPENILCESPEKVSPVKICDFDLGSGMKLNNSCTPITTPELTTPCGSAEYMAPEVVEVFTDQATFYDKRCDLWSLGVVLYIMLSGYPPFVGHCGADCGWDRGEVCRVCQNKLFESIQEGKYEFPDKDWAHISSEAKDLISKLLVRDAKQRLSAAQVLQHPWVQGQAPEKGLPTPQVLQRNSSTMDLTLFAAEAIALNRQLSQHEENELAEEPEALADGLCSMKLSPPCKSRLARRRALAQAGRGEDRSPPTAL
How it was run: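 Recombinant GST-MNK1 from baculovirus-infected insect cells, Z-Lyte Ser/Thr 7 peptide, enzyme set for ~30% phosphorylation in buffer-only wells; 3 hours at 31° C. Compounds at 50–10000 nM (potent ones down to 0.5 nM), at least duplicate. IC50 from % substrate phosphorylation versus buffer-only wells, fluorescence read-out.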

## Cc1cc(NC(=O)Nc2ccc(-c3cncc4ccc(CN5CCC(N)CC5)cc34)cc2)on1 [Example 120, 1-[4-[6-[(4-Amino-1-piperidyl)methyl]-4-isoquinolyl]phenyl]-3-(3-methylisoxazol-5-yl)urea]
[1]
  pIC50: 4.73
MNK1
  pIC50: 6.17

## Nc1cc[n+](Cc2ccc3cncc(-c4ccccc4)c3c2)cc1 [Example 121, 1-[(4-Phenyl-6-isoquinolyl)methyl]pyridin-1-ium-4-amine]
[1]
  pIC50: 4.66
MNK1
  pIC50: 6.78

## Nc1cc[n+](Cc2ccc3cncc(-c4ccc(O)cc4)c3c2)cc1 [Example 122]
[1]
  inhibition at 100 µM: 37%
MNK1
  pIC50: 7.55

## Nc1cc[n+](Cc2ccc3cncc(-c4ccc(Cl)cc4)c3c2)cc1 [Example 123]
[1]
  pIC50: 5.10
MNK1
  pIC50: 6.88

## Nc1cc[n+](Cc2ccc3cncc(-c4ccc(NC(=O)Nc5ccccc5)cc4)c3c2)cc1 [Example 124]
[1]
  pIC50: 4.34
MNK1
  pIC50: 5.68

## Cc1cc(N)cc[n+]1Cc1ccc2cncc(-c3cc4ccccc4o3)c2c1 [Example 125, 1-[[4-(Benzofuran-2-yl)-6-isoquinolyl]methyl]-2-methyl-pyridin-1-ium-4-amine]
[1]
  pIC50: 5.39
MNK1
  pIC50: 7.28

## Cc1cc(NCc2ccc3cncc(-c4cc5ccccc5o4)c3c2)cc(C)n1 [Example 126]
[1]
  pIC50: 5.26
MNK1
  pIC50: 6.44

## Nc1cc[n+](Cc2ccc3cncc(-c4cc5ccccc5o4)c3c2)nc1 [Example 127]
[1]
  pIC50: 5.07
MNK1
  pIC50: 7.68

## c1ccc2oc(-c3cncc4ccc(CNc5ccncn5)cc34)cc2c1 [Example 128]
[1]
  pIC50: 4.80
MNK1
  pIC50: 7.08

## Nc1ccc(NCc2ccc3cncc(-c4cc5ccccc5o4)c3c2)cn1 [Example 129]
[1]
  pIC50: 4.64
MNK1
  pIC50: 6.84

## Nc1cc(NCc2ccc3cncc(-c4cc5ccccc5o4)c3c2)ccn1 [Example 130, N4-[[4-(Benzofuran-2-yl)-6-isoquinolyl]methyl]pyridine-2,4-diamine]
[1]
  pIC50: 6.24
MNK1
  pIC50: 7.68

## Nc1ccc(Nc2ccc3cncc(-c4cc5ccccc5o4)c3c2)cc1 [Example 132, N1-[4-(Benzofuran-2-yl)-6-isoquinolyl]benzene-1,4-diamine]
[1]
  inhibition at 100 µM: 53%
MNK1
  pIC50: 5.51

## NCc1ccc(Nc2ccc3cncc(-c4cc5ccccc5o4)c3c2)cc1 [Example 133]
[1]
  pIC50: 4.94
MNK1
  pIC50: 6.82

## c1cncc(Nc2ccc3cncc(-c4cc5ccccc5o4)c3c2)c1 [Example 134]
[1]
  inhibition at 100 µM: 45%
MNK1
  pIC50: 5.33

## Nc1cccc(Nc2ccc3cncc(-c4cc5ccccc5o4)c3c2)c1 [Example 135]
[1]
  pIC50: 4.96
MNK1
  pIC50: 5.33

## NCc1cccc(Nc2ccc3cncc(-c4cc5ccccc5o4)c3c2)c1 [Example 136]
[1]
  pIC50: 4.69
MNK1
  pIC50: 6.25

## Nc1cc(Nc2ccc3cncc(-c4cc5ccccc5o4)c3c2)ccn1 [Example 137, N4-[4-(Benzofuran-2-yl)-6-isoquinolyl]pyridine-2,4-diamine]
[1]
  pIC50: 5.49
MNK1
  pIC50: 5.96

## Nc1ccc(Nc2ccc3cncc(-c4cc5ccccc5o4)c3c2)cn1 [Example 138, N5-[4-(Benzofuran-2-yl)-6-isoquinolyl]pyridine-2,5-diamine]
[1]
  pIC50: 4.92
MNK1
  pIC50: 5.80

## c1ccc2oc(-c3cncc4ccc(Nc5ccncc5)cc34)cc2c1 [Example 139, 4-(Benzofuran-2-yl)-N-(4-pyridyl)isoquinolin-6-amine]
[1]
  pIC50: 4.98
MNK1
  pIC50: 6.04

## N[C@H]1CC[C@H](Nc2cc3c(-c4cc5ccccc5o4)cncc3cc2Cl)CC1 [Example 140, N4-[4-(Benzofuran-2-yl)-7-chloro-6-isoquinolyl]cyclohexane-1,4-diamine]
[1]
  pIC50: 5.73
MNK1
  pIC50: 8.00

## COc1cc2cncc(-c3cc4ccccc4o3)c2cc1N[C@H]1CC[C@H](N)CC1 [Example 141, N4-[4-(Benzofuran-2-yl)-7-methoxy-6-isoquinolyl]cyclohexane-1,4-diamine]
[1]
  pIC50: 5.65
MNK1
  pIC50: 6.73

## N[C@H]1CC[C@H](Nc2cc(Cl)c3cncc(-c4cc5ccccc5o4)c3c2)CC1 [Example 142, N4-[4-(Benzofuran-2-yl)-8-chloro-6-isoquinolyl]cyclohexane-1,4-diamine]
[1]
  pIC50: 5.42
MNK1
  pIC50: 6.74

## COc1cc(N[C@H]2CC[C@H](N)CC2)cc2c(-c3cc4ccccc4o3)cncc12 [Example 143, N4-[4-(benzofuran-2-yl)-8-methoxy-6-isoquinolyl]cyclohexane-1,4-diamine]
[1]
  pIC50: 5.71
MNK1
  pIC50: 6.32

## NC1CCN(Cc2ccc3nncc(-c4cc5ccccc5o4)c3c2)CC1 [Example 144, 1-[[4-(Benzofuran-2-yl)cinnolin-6-yl]methyl]piperidin-4-amine]
[1]
  pIC50: 5.34
MNK1
  pIC50: 5.72

## NC1CCN(Cc2ccc3nncc(-c4ccc(Cl)cc4)c3c2)CC1 [Example 145, 1-[[4-(4-Chlorophenyl)cinnolin-6-yl]methyl]piperidin-4-amine]
[1]
  pIC50: 4.54
MNK1
  pIC50: 5.57

## c1ccc2oc(-c3cncc4ccc(OCc5ccncc5)cc34)cc2c1 [Example 146, 4-(Benzofuran-2-yl)-6-(4-pyridylmethoxy)isoquinoline]
[1]
  pIC50: 4.70
MNK1
  pIC50: 6.57

## c1ccc2oc(-c3cncc4ccc(NCc5ccncc5)cc34)cc2c1 [Example 147, 4-(Benzofuran-2-yl)-N-(4-pyridylmethyl)isoquinolin-6-amine]
[1]
  pIC50: 5.15
MNK1
  pIC50: 7.04

## N[C@H]1CC[C@H](Nc2ccc3cncc(-c4cc5ccccc5o4)c3c2)CC1 [Example 148, 4-(Benzofuran-2-yl)-N-(4-(trans)aminocyclohexyl)isoquinolin-6-amine]
[1]
  pIC50: 5.76
MNK1
  pIC50: 7.24

## Nc1ncc(-c2cc3ccccc3o2)c2cc(CNc3ccncc3)ccc12 [Example 151, 4-(Benzofuran-2-yl)-6-[(4-pyridylamino)methyl]isoquinolin-1-amine]
[1]
  pIC50: 5.60
MNK1
  pIC50: 7.96

## Nc1cc[n+](Cc2ccc3c(N)ncc(-c4cc5ccccc5o4)c3c2)cc1 [Example 152, 6-[(4-Aminopyridin-1-ium-1-yl)methyl]-4-(benzofuran-2-yl)isoquinolin-1-amine]
[1]
  pIC50: 5.81
MNK1
  pIC50: 7.77

## Nc1ncc(-c2cc3ccccc3o2)c2cc(CN3CCC(N)CC3)ccc12 [Example 153, 6-[(4-Amino-1-piperidyl)methyl]-4-(benzofuran-2-yl)isoquinolin-1-amine]
[1]
  pIC50: 5.46
MNK1
  pIC50: 6.88

## N[C@H]1CC[C@H](C(=O)Nc2ccc3cncc(-c4cc5ccccc5o4)c3c2)CC1 [Example 156, trans-4-Amino-N-[4-(benzofuran-2-yl)-6-isoquinolyl]cyclohexanecarboxamide]
[1]
  pIC50: 4.98
MNK1
  pIC50: 6.43

## N[C@H]1CC[C@@H](C(=O)Nc2ccc3cncc(-c4cc5ccccc5o4)c3c2)CC1 [Example 157]
[1]
  pIC50: 5.10
MNK1
  pIC50: 7.30

## N[C@H]1CC[C@H](NC(=O)c2ccc3cncc(-c4cc5ccccc5o4)c3c2)CC1 [Example 160, Trans-N-(4-aminocyclohexyl)-4-(benzofuran-2-yl)isoquinoline-6-carboxamide]
[1]
  pIC50: 4.91
MNK1
  pIC50: 6.55

## N[C@H]1CC[C@@H](NC(=O)c2ccc3cncc(-c4cc5ccccc5o4)c3c2)CC1 [Example 161]
[1]
  pIC50: 4.62
MNK1
  pIC50: 6.33

## Nc1ncc2ccc(CN3CCC(N)CC3)cc2c1-c1ccccc1 [Example 162, 6-[(4-Amino-1-piperidyl)methyl]-4-phenyl-isoquinolin-3-amine]
[1]
  pIC50: 5.01
MNK1; at 1 μM, read-out: Inhibition of MNK1 activity at indicated concentration
  inhibition at 1 µM: 54%

## Nc1ncc2ccc(CN3CCC(N)CC3)cc2c1-c1ccc(O)cc1 [Example 163]
[1]
  pIC50: 4.86
MNK1
  pIC50: 6.85

## Nc1ncc2ccc(CN3CCC(N)CC3)cc2c1-c1cc2ccccc2o1 [Example 164, 6-[(4-Amino-1-piperidyl)methyl]-4-(benzofuran-2-yl)isoquinolin-3-amine]
[1]
  pIC50: 5.18
MNK1
  pIC50: 6.07

## Nc1ncc2ccc(CNc3ccncc3)cc2c1-c1cc2ccccc2o1 [Example 165, 4-(Benzofuran-2-yl)-6-[(4-pyridylamino)methyl]isoquinolin-3-amine]
[1]
  pIC50: 5.24
MNK1
  pIC50: 8.22

## Cc1ccc(-c2cncc3ccc(CN4CCC(N)CC4)cc23)o1 [Example 167, 1-[[4-(5-methyl-2-furyl)-6-isoquinolyl]methyl]piperidin-4-amine]
[1]
  pIC50: 6.10
MNK1
  pIC50: 5.98

## NC1CCN(Cc2ccc3cncc(-c4ccc5[nH]ccc5c4)c3c2)CC1 [Example 168]
[1]
  pIC50: 4.91
MNK1
  pIC50: 6.12

## NC1CCN(Cc2ccc3cncc(-c4ccc5cc[nH]c5c4)c3c2)CC1 [Example 169]
[1]
  pIC50: 4.99
MNK1
  pIC50: 6.61

## NC1CCN(Cc2ccc3cncc(-c4cc5ccccc5s4)c3c2)CC1 [Example 170]
[1]
  pIC50: 5.59
MNK1
  pIC50: 6.44

## NC1CCN(Cc2ccc3cncc(-c4ccc(Cl)s4)c3c2)CC1 [Example 171]
[1]
  pIC50: 4.95
MNK1
  pIC50: 6.72

## NC1CCN(Cc2ccc3cncc(-c4ccc5occc5c4)c3c2)CC1 [Example 172]
[1]
  pIC50: 4.92
MNK1
  pIC50: 6.57

## NC1CCN(Cc2ccc3cncc(-c4cnc5ccccc5c4)c3c2)CC1 [Example 173]
[1]
  pIC50: 5.01
MNK1
  pIC50: 6.02

## NC1CCN(Cc2ccc3cncc(-c4ccc5ccccc5c4)c3c2)CC1 [Example 174]
[1]
  pIC50: 5.33
MNK1
  pIC50: 6.33

## COc1ccc2oc(-c3cncc4ccc(CN5CCC(N)CC5)cc34)cc2c1 [Example 175]
[1]
  pIC50: 5.11
MNK1
  pIC50: 5.97
